Source: ChEMBL document CHEMBL4610120, “New Broad-Spectrum Antibiotics Containing a Pyrrolobenzodiazepine Ring with Activity against Multidrug-Resistant Gram-Negative Bacteria” (J Med Chem, 2020)
≈ marks a conversion by molar mass, not a printed value.

What was measured:
[1] = target: T1, Protein RecA (Escherichia coli K-12) (UniProt P0A7G6); experiment: Induction of Escherichia coli K12 MG1655 recA promotor measured at 30 mins interval for 20 hrs by fluorescence assay relative to control; details: Escherichia coli str. K-12 substr. MG1655
T1 sequence (whole entry): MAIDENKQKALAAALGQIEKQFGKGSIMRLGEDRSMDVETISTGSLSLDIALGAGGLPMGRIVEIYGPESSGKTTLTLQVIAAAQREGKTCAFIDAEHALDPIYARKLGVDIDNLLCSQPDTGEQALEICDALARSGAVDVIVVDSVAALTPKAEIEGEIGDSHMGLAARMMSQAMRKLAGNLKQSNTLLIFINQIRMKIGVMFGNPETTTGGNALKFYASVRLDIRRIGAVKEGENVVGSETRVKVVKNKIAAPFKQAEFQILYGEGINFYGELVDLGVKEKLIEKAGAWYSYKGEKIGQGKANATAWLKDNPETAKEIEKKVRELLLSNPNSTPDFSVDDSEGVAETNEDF

[2] = target: T2, Cell division inhibitor SulA (Escherichia coli K-12) (UniProt P0AFZ5); experiment: Induction of Escherichia coli K12 MG1655 sulA promotor measured at 30 mins interval for 20 hrs by fluorescence assay relative to control; details: Escherichia coli str. K-12 substr. MG1655
T2 sequence (whole entry): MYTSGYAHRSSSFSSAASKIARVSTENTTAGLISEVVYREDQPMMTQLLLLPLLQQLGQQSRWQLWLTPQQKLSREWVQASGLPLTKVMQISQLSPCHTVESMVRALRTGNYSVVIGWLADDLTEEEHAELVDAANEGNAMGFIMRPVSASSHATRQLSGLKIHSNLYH

[3] = system: Escherichia coli; experiment: Antimicrobial activity against multidrug-resistant Escherichia coli NCTC 12923 assessed as mutation frequency at 4 times MIC measured after 48 hrs; assay type: functional
[4] = system: Acinetobacter baumannii; experiment: Antimicrobial activity against Acinetobacter baumannii ATCC 17978 assessed as mutation frequency at 4 times MIC measured after 48 hrs; assay type: functional
[5] = target: T3, DNA repair protein RecN (Escherichia coli) (UniProt P05824); experiment: Induction of Escherichia coli K12 MG1655 recN promotor measured at 30 mins interval for 20 hrs by fluorescence assay relative to control; details: Escherichia coli str. K-12 substr. MG1655
T3 sequence (whole entry): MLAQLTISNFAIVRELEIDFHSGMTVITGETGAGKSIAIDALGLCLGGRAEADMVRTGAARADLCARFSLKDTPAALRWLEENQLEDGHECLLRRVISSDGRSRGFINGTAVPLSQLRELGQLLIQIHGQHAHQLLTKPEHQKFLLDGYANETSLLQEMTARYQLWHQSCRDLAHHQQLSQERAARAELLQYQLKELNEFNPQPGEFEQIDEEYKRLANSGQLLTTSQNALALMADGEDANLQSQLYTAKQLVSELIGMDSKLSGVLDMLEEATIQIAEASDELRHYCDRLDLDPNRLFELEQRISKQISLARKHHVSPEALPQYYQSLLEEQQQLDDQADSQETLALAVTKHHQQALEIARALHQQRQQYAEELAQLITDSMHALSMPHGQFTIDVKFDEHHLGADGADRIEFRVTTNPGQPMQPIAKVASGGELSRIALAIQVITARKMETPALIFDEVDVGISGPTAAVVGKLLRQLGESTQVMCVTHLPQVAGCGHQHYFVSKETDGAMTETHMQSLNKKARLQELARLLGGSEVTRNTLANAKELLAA

[6] = system: Klebsiella pneumoniae; experiment: Antimicrobial activity against Klebsiella pneumoniae M6 assessed as mutation frequency at 4 times MIC measured after 48 hrs; assay type: functional
[7] = target: T4, LexA repressor (Escherichia coli) (UniProt P0A7C2); experiment: Induction of Escherichia coli K12 MG1655 lexA promotor measured at 30 mins interval for 20 hrs by fluorescence assay relative to control; details: Escherichia coli str. K-12 substr. MG1655
T4 sequence (whole entry): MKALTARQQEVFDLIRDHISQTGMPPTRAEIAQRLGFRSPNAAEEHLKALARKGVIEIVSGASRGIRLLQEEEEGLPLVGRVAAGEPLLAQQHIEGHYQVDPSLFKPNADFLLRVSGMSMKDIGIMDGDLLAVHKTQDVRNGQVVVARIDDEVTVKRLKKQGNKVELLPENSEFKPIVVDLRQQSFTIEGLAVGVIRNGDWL

[8] = system: Pseudomonas aeruginosa; experiment: Antimicrobial activity against Pseudomonas aeruginosa PAO1 by microdilution broth method; assay type: functional
[9] = Selectivity ratio of cytotoxicity against human WI38 cells to MIC for multidrug-resistant Klebsiella pneumoniae NCTC 13368; assay type: toxicity, cell-based
[10] = Selectivity ratio of cytotoxicity against human WI38 cells to MIC for vancomycin resistant Enterococcus faecalis NCTC 12201; assay type: toxicity, cell-based
[11] = system: DNA; experiment: Stabilization of 5'-FAM-TAT-ATA-TAG-ATA-TTT-TTT-TAT-CTA-TAT-ATA-3'-TAMRA DNA (unknown origin) assessed as reduction in change in melting temperature at 1:1 to 5:1 ligand to DNA ratio measured after 3 hrs by FRET-based assay relative to control; assay type: ADME, nucleic-acid assay
[12] = Selectivity ratio of cytotoxicity against human WI38 cells to MIC for vancomycin sensitive Enterococcus faecalis NCTC 775; assay type: toxicity, cell-based
[13] = Selectivity ratio of cytotoxicity against human WI38 cells to MIC for Klebsiella pneumoniae M6; assay type: toxicity, cell-based
[14] = Selectivity ratio of cytotoxicity against human WI38 cells to MIC for vancomycin resistant Enterococcus faecium NCTC 12204; assay type: toxicity, cell-based
[15] = system: Enterococcus faecium; experiment: Antibacterial activity against vancomycin resistant Enterococcus faecium NCTC 12204 by microdilution broth method; assay type: functional
[16] = Selectivity ratio of cytotoxicity against human WI38 cells to MIC for methicillin resistant Staphylococcus aureus NCTC 13616; assay type: toxicity, cell-based
[17] = system: Acinetobacter baumannii; experiment: Antimicrobial activity against multidrug-resistant Acinetobacter baumannii AYE by microdilution broth method; assay type: functional
[18] = Selectivity ratio of cytotoxicity against human WI38 cells to MIC for methicillin resistant Staphylococcus aureus NCTC 13277; assay type: toxicity, cell-based
[19] = system: Staphylococcus aureus; experiment: Antibacterial activity against methicillin resistant Staphylococcus aureus NCTC 13616 by microdilution broth method; assay type: functional
[20] = system: Enterococcus faecalis; experiment: Antibacterial activity against vancomycin sensitive Enterococcus faecalis NCTC 775 by microdilution broth method; assay type: functional
[21] = system: Enterococcus faecalis; experiment: Antibacterial activity against vancomycin resistant Enterococcus faecalis NCTC 12201 by microdilution broth method; assay type: functional
[22] = Cytotoxicity against human WI38 cells assessed as cell viability at 20 uM measured after 24 hrs by MTT assay relative to control; assay type: cell-based, WI-38; details: read-out: Activity
[23] = Selectivity ratio of cytotoxicity against human WI38 cells to MIC for Pseudomonas aeruginosa PAO1; assay type: toxicity, cell-based
[24] = Selectivity ratio of cytotoxicity against human WI38 cells to MIC for Acinetobacter baumannii ATCC 17978; assay type: toxicity, cell-based
[25] = system: DNA; experiment: Stabilization of 5'-FAM-TAT-AGA-TAT-AGA-TAT-TTT-ATA-TCT-ATA-TCT-ATA-3'-TAMRA DNA (unknown origin) assessed as reduction in change in melting temperature at 1:1 to 5:1 ligand to DNA ratio measured after 3 hrs by FRET-based assay relative to control; assay type: ADME, nucleic-acid assay
[26] = system: Klebsiella pneumoniae; experiment: Antimicrobial activity against multidrug-resistant Klebsiella pneumoniae NCTC 13368 by microdilution broth method; assay type: functional
[27] = Selectivity ratio of cytotoxicity against human WI38 cells to MIC for multidrug-resistant Pseudomonas aeruginosa NCTC 13437; assay type: toxicity, cell-based
[28] = Selectivity ratio of cytotoxicity against human WI38 cells to MIC for multidrug-resistant Acinetobacter baumannii AYE; assay type: toxicity, cell-based
[29] = system: Klebsiella pneumoniae; experiment: Antimicrobial activity against Klebsiella pneumoniae M6 by microdilution broth method; assay type: functional
[30] = system: Staphylococcus aureus; experiment: Antibacterial activity against methicillin sensitive Staphylococcus aureus NCTC 6571 by microdilution broth method; assay type: functional
[31] = system: Staphylococcus aureus; experiment: Antibacterial activity against methicillin resistant Staphylococcus aureus NCTC 13277 by microdilution broth method; assay type: functional
[32] = system: Acinetobacter baumannii; experiment: Antimicrobial activity against Acinetobacter baumannii ATCC 17978 by microdilution broth method; assay type: functional
[33] = system: Pseudomonas aeruginosa; experiment: Antimicrobial activity against multidrug-resistant Pseudomonas aeruginosa NCTC 13437 by microdilution broth method; assay type: functional
[34] = Selectivity ratio of cytotoxicity against human WI38 cells to MIC for methicillin sensitive Staphylococcus aureus NCTC 6571; assay type: toxicity, cell-based
[35] = system: Klebsiella pneumoniae; experiment: Antibacterial activity against multidrug-resistant Klebsiella pneumoniae NCTC 13368 measured after 10 passages by microdilution broth method; assay type: functional

Molecule | MIC [8] [µg/mL] | selectivity ratio [9] | selectivity ratio [10] | fold change (FC) [11] | selectivity ratio [12] | selectivity ratio [13] | selectivity ratio [14] | MIC [15] [µg/mL] | selectivity ratio [16] | MIC [17] [µg/mL] | selectivity ratio [18] | MIC [19] [µg/mL] | MIC [20] [µg/mL] | MIC [21] [µg/mL] | viability at 24 h, 20 µM [22] [%] | selectivity ratio [23] | selectivity ratio [24] | fold change (FC) [25] | MIC [26] [µg/mL] | selectivity ratio [27] | other results
O=C(O)c1cn(C2CC2)c2cc(N3CCNCC3)c(F)cc2c1=O [CIPROFLOXACIN] | – | – | – | – | – | – | – | – | – | – | – | – | – | – | – | – | – | – | – | – | fold change (FC) [1]: 20 to 35; fold change (FC) [2]: 17 to 41; Activity [3]: 4.4 ×10⁻⁷ No_unit; Activity [4]: 8.4 ×10⁻⁷ No_unit; fold change (FC) [5]: 14 to 32; Activity [6]: 8.9 ×10⁻⁷ No_unit; fold change (FC) [7]: 5 to 13
COc1cc2c(cc1OCCCC(=O)Nc1cc(C(=O)Nc3ccc(-c4cc(C(=O)N5CCOCC5)n(C)c4)cc3)n(C)c1)N=C[C@@H]1CCCN1C2=O | > 128 | 10 | 100 | 3 to 4 | 100 | 10 | 100 | ≤ 0.125 | 100 | 2 (≈ 2.77 µM) | 100 | ≤ 0.125 | ≤ 0.125 | ≤ 0.125 | > 85 | 10 | 10 | 3 to 4 | 32 (≈ 44.3 µM) | 10 | selectivity ratio [28]: 10; MIC [29]: 2 µg/mL (≈ 2.77 µM); MIC [30]: ≤ 0.125 µg/mL; MIC [31]: ≤ 0.125 µg/mL; MIC [32]: 4 µg/mL (≈ 5.54 µM); MIC [33]: > 128 µg/mL; selectivity ratio [34]: 100
COc1cc2c(cc1OCCCC(=O)Nc1cc(C(=O)Nc3ccc(-c4cc(C(=O)N5CCSCC5)n(C)c4)cc3)n(C)c1)N=C[C@@H]1CCCN1C2=O | > 32 | 10 | 100 | 3 to 4 | 100 | 10 | 100 | ≤ 0.03 | 100 | 2 (≈ 2.71 µM) | 100 | ≤ 0.03 | ≤ 0.03 | ≤ 0.03 | > 85 | 10 | 10 | 3 to 4 | > 32 | 10 | selectivity ratio [28]: 10; MIC [29]: 4 µg/mL (≈ 5.42 µM); MIC [30]: ≤ 0.03 µg/mL; MIC [31]: 0.06 µg/mL (≈ 0.0813 µM); MIC [32]: 2 µg/mL (≈ 2.71 µM); MIC [33]: > 32 µg/mL; selectivity ratio [34]: 100
CCN(CC)C(=O)c1cc(-c2ccc(NC(=O)c3cc(NC(=O)CCCOc4cc5c(cc4OC)C(=O)N4CCC[C@H]4C=N5)cn3C)cc2)cn1C | > 128 | 10 | 100 | 3 to 4 | 100 | 10 | 100 | 0.25 (≈ 0.353 µM) | 100 | 32 (≈ 45.2 µM) | 100 | 1 (≈ 1.41 µM) | 0.5 (≈ 0.706 µM) | 0.25 to 0.5 (≈ 0.353 to 0.706 µM) | > 85 | 10 | 10 | 3 to 4 | > 128 | 10 | selectivity ratio [28]: 10; MIC [29]: > 128 µg/mL; MIC [30]: 0.25 to 0.5 µg/mL (≈ 0.353 to 0.706 µM); MIC [31]: 1 µg/mL (≈ 1.41 µM); MIC [32]: 64 µg/mL (≈ 90.4 µM); MIC [33]: > 128 µg/mL; selectivity ratio [34]: 100
COLISTIN | – | – | – | – | – | – | – | – | – | – | – | – | – | – | – | – | – | – | – | – | MIC [35]: 32 µg/mL
